Our source for the IC50 values is US20240092784A1, “CONDENSED HETEROCYCLIC COMPOUND” (NISSAN CHEMICAL CORPORATION, priority 2020, published 2024).

pIC50: −log10 of the molar value. Counter-ions that a name gives are not always drawn.

Sequence of human SPR (P35270 whole entry): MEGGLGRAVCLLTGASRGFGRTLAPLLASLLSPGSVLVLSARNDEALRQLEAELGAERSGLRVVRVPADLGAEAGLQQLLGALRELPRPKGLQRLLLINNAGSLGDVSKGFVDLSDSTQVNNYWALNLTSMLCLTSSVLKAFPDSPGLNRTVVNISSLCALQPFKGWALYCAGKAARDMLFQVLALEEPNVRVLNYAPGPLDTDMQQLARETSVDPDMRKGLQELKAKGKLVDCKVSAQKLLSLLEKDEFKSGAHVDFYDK

The target of the first assay is human SPR (Homo sapiens (Human), UniProt P35270). The assay is described as follows: Evaluation Example 2: Measurement of human SPR inhibitory activity (seven concentrations, sepiapterin absorbance at 420 nm). The conditions noted are these: Evaluation Example 2, seven concentrations 0.14 nM to 100 nM, 240 minutes at room temperature, read-out: IC50. Format: biochemical. The method in brief:
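Reactions ran 240 min at room temperature in 100 mM Tris-HCl pH 7.5 with 0.01% BSA. They contained tag-cleaved, E. coli-expressed full-length human SPR (diluted to 150 ng/mL), seven compound concentrations from 0.14 to 100 nM, and sepiapterin/NADPH added as a 120 μM/160 μM solution. Inhibition was calculated from sepiapterin absorbance at 420 nm.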
Consider `CC(C)Cn1c(=O)c(C(=O)NC2CC2)c(O)n2ncc(/C=C/C(=O)N3CCCOCC3)c12` [compound 461, (E)-3-(3-(1,4-Oxazepan-4-yl)-3-oxoprop-1-en-1-yl)-N-cyclopropyl-7-hydroxy-4-isobutyl-5-oxo-4,5-dihydropyrazolo[1,5-a]pyrimidine-6-carboxamide], for which the pIC50 was 9.12.

Regarding `CCCc1cnc(Nc2cc3n(CC(C)(C)C)c(=O)c(C(=O)NC4CC4)c(O)n3n2)cn1` [Synthesis Example 336, N-Cyclopropyl-7-hydroxy-4-neopentyl-5-oxo-2-((5-propylpyrazin-2-yl)amino)-4,5-dihydropyrazolo[1,5-a]pyrimidine-6-carboxamide], the pIC50 is 8.15. Consider `CC(C)(C)Cn1c(=O)c(C(=O)NC2CC2)c(O)n2nc(-c3cccnc3C#N)cc12` [Synthesis Example 293, 2-(2-Cyanopyridin-3-yl)-N-cyclopropyl-7-hydroxy-4-neopentyl-5-oxo-4,5-dihydropyrazolo[1,5-a]pyrimidine-6-carboxamide], for which the pIC50 was 8.65. Consider `CC(C)Cn1c(=O)c(C(=O)NC2CC2)c(O)n2ncc(/C=C/C(=O)N3CC[C@@H](C#N)C3)c12` [compound 483, (R,E)-3-(3-(3-Cyanopyrrolidin-1-yl)-3-oxoprop-1-en-1-yl)-N-cyclopropyl-7-hydroxy-4-isobutyl-5-oxo-4,5-dihydropyrazolo[1,5-a]pyrimidine-6-carboxamide], for which the pIC50 is 9.16. `CC(C)Cn1c(=O)c(C(=O)NC2CC2)c(O)n2ncc(C(=O)N3CCOCC3)c12` [Synthesis Example 227, N-Cyclopropyl-7-hydroxy-4-isobutyl-3-(morpholine-4-carbonyl)-5-oxo-4,5-dihydropyrazolo[1,5-a]pyrimidine-6-carboxamide]: the pIC50 is 9.19. Same read-out and setting: the value for `CC(C)Cn1c(=O)c(C(=O)NC2CC2)c(O)n2ncc(/C=C/C(=O)N3CC[C@H](C#N)C3)c12` [compound 482, (S,E)-3-(3-(3-Cyanopyrrolidin-1-yl)-3-oxoprop-1-en-1-yl)-N-cyclopropyl-7-hydroxy-4-isobutyl-5-oxo-4,5-dihydropyrazolo[1,5-a]pyrimidine-6-carboxamide] was 9.15. The same measure, in the same setting: as for `CC(C)Cn1c(=O)c(C(=O)NC2CC2)c(O)n2ncc(/C=C/c3cscn3)c12` [Synthesis Example 240, (E)-N-Cyclopropyl-7-hydroxy-4-isobutyl-5-oxo-3-(2-(thiazol-4-yl)vinyl)-4,5-dihydropyrazolo[1,5-a]pyrimidine-6-carboxamide], the figure is 8.74; as for `CC(C)(C)Cn1c(=O)c(C(=O)NC2CC2)c(O)n2nc(-c3[nH]ncc3C(=O)N3CCC(F)(F)CC3)cc12` [Synthesis Example 313, N-Cyclopropyl-2-(4-(4,4-difluoropiperidine-1-carbonyl)-1H-pyrazol-5-yl)-7-hydroxy-4-neopentyl-5-oxo-4,5-dihydropyrazolo[1,5-a]pyrimidine-6-carboxamide hydrochloride], 8.94.

`CC(C)Cn1c(=O)c(C(=O)NC2CC2)c(O)n2ncc(/C=C/C(=O)N3CCCCCO3)c12` [compound 543, (E)-3-(3-(1,2-Oxazepan-2-yl)-3-oxoprop-1-en-1-yl)-N-cyclopropyl-7-hydroxy-4-isobutyl-5-oxo-4,5-dihydropyrazolo[1,5-a]pyrimidine-6-carboxamide]: the pIC50 was 9.01.

For `CC(C)Cn1c(=O)c(C(=O)NC2CC2)c(O)n2ncc(/C=C/C(=O)N3CC[C@H](F)C3)c12` [compound 454, (S,E)-N-Cyclopropyl-3-(3-(3-fluoropyrrolidin-1-yl)-3-oxoprop-1-en-1-yl)-7-hydroxy-4-isobutyl-5-oxo-4,5-dihydropyrazolo[1,5-a]pyrimidine-6-carboxamide], the pIC50 is 9.12. Consider `CNc1nn2c(O)c(C(=O)NC3CC3)c(=O)n(CC(C)C)c2c1/C=C/C(=O)N1CC[C@H](F)C1` [Synthesis Example 429, (S,E)-N-Cyclopropyl-3-(3-(3-fluoropyrrolidin-1-yl)-3-oxoprop-1-en-1-yl)-7-hydroxy-4-isobutyl-2-(methylamino)-5-oxo-4,5-dihydropyrazolo[1,5-a]pyrimidine-6-carboxamide], for which the pIC50 was 9.10. For the molecule `CC(C)(C)Cn1c(=O)c(C(=O)NC2CC2)c(O)n2nc(-c3n[nH]cc3C(F)(F)F)cc12` [Synthesis Example 298, N-Cyclopropyl-7-hydroxy-4-neopentyl-5-oxo-2-(4-(trifluoromethyl)-1H-pyrazol-3-yl)-4,5-dihydropyrazolo[1,5-a]pyrimidine-6-carboxamide], the pIC50 was 8.51. In the case of `CC(C)Cn1c(=O)c(C(=O)NCC(F)(F)F)c(O)n2nc(Br)cc12` [Synthesis Example 273, 2-Bromo-7-hydroxy-4-isobutyl-5-oxo-N-(2,2,2-trifluoroethyl)-4,5-dihydropyrazolo[1,5-a]pyrimidine-6-carboxamide], the pIC50 was 7.93. Consider `CC(C)Cn1c(=O)c(C(=O)NC2CC2)c(O)n2ncc(/C=C/C(=O)N3CCC[C@@H]3c3ccccc3)c12` [compound 607, (R,E)-N-Cyclopropyl-7-hydroxy-4-isobutyl-5-oxo-3-(3-oxo-3-(2-phenylpyrrolidin-1-yl)prop-1-en-1-yl)-4,5-dihydropyrazolo[1,5-a]pyrimidine-6-carboxamide], for which the pIC50 was 8.78. Consider `CC(C)Cn1c(=O)c(C(=O)NC2CC2)c(O)n2ncc(/C=C/C(=O)N3CCN(CC(F)(F)C(F)(F)F)CC3)c12` [compound 505, (E)-N-Cyclopropyl-7-hydroxy-4-isobutyl-5-oxo-3-(3-oxo-3-(4-(2,2,3,3,3-pentafluoropropyl)piperazin-1-yl)prop-1-en-1-yl)-4,5-dihydropyrazolo[1,5-a]pyrimidine-6-carboxamide], for which the pIC50 was 8.72. On to `CC[C@@H]1COCCN1C(=O)/C=C/c1cnn2c(O)c(C(=O)NC3CC3)c(=O)n(CC(C)C)c12` [compound 540, (R,E)-N-Cyclopropyl-3-(3-(3-ethylmorpholino)-3-oxoprop-1-en-1-yl)-7-hydroxy-4-isobutyl-5-oxo-4,5-dihydropyrazolo[1,5-a]pyrimidine-6-carboxamide], for which the pIC50 was 9.18. As to `CC(C)Cn1c(=O)c(C(=O)NC2CC2)c(O)n2ncc(C(=O)NCc3ccc(F)cc3F)c12` [Synthesis Example 234, N6-Cyclopropyl-N3-(2,4-difluorobenzyl)-7-hydroxy-4-isobutyl-5-oxo-4,5-dihydropyrazolo[1,5-a]pyrimidine-3,6-dicarboxamide], the pIC50 is 8.85. `CNc1nn2c(O)c(C(=O)NC3CC3)c(=O)n(CC(C)C)c2c1/C=C/C(=O)N1CCOC[C@@H]1C` [Synthesis Example 430, (S,E)-N-Cyclopropyl-7-hydroxy-4-isobutyl-2-(methylamino)-3-(3-(3-methylmorpholino)-3-oxoprop-1-en-1-yl)-5-oxo-4,5-dihydropyrazolo[1,5-a]pyrimidine-6-carboxamide]: the pIC50 was 9.04.

Staying with this assay, now noted: sepiapterin absorbance, Table 41, read-out: concentration at 50% inhibition of human SPR (IC50).
Consider `CC(C)Cn1c(=O)c(C(=O)NC2CC2)c(O)n2ncc(/C=C/C(=O)N3CCC[C@H]3C(C)(C)O)c12` [Synthesis Example 730, (S,E)-N-Cyclopropyl-7-hydroxy-3-(3-(2-(2-hydroxypropan-2-yl)pyrrolidin-1-yl)-3-oxoprop-1-en-1-yl)-4-isobutyl-5-oxo-4,5-dihydropyrazolo[1,5-a]pyrimidine-6-carboxamide], for which the pIC50 is 8.90.
